Measurements reported in PubChem BioAssay (NCI).
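Values below derive from 48-hour exposures of cells grown in 96-well plates, with endpoints linearly interpolated between the two concentrations bracketing the appropriate inhibition level. Definition used: TGI = concentration required for complete inhibition of growth.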

How the values were obtained:
Assay in all cases: inhibition of tumour cell growth, NCI panel, 48 h
CCRF-CEM leukemia = test system: CCRF-CEM leukemia
TK-10 renal = test system: TK-10 renal
NCI-H460 lung = test system: NCI-H460 lung
EKVX NSCLC = test system: EKVX NSCLC
OVCAR-5 ovarian = test system: OVCAR-5 ovarian
COLO 205 colon = test system: COLO 205 colon
HOP-62 NSCLC = test system: HOP-62 NSCLC
KM20L2 colon = test system: KM20L2 colon
K-562 leukemia = test system: K-562 leukemia
HT29 colon = test system: HT29 colon
OVCAR-4 ovarian = test system: OVCAR-4 ovarian
SNB-75 CNS = test system: SNB-75 CNS
A549 NSCLC = test system: A549 NSCLC
SNB-19 CNS = test system: SNB-19 CNS
SF-539 CNS = test system: SF-539 CNS
786-0 renal = test system: 786-0 renal
RXF 393 renal = test system: RXF 393 renal
MOLT-4 leukemia = test system: MOLT-4 leukemia
UO-31 renal = test system: UO-31 renal
OVCAR-3 ovarian = test system: OVCAR-3 ovarian
SN12C renal = test system: SN12C renal
XF 498 CNS = test system: XF 498 CNS
A498 renal = test system: A498 renal
LXFL 529 NSCLC = test system: LXFL 529 NSCLC
SK-MEL-28 melanoma = test system: SK-MEL-28 melanoma
LOX IMVI melanoma = test system: LOX IMVI melanoma
SK-MEL-2 melanoma = test system: SK-MEL-2 melanoma
RXF-631 renal = test system: RXF-631 renal
HCT-116 colon = test system: HCT-116 colon
SNB-78 CNS = test system: SNB-78 CNS
KM12 colon = test system: KM12 colon
SF-295 CNS = test system: SF-295 CNS
NCI-H522 lung = test system: NCI-H522 lung
NCI-H23 lung = test system: NCI-H23 lung
SK-MEL-5 melanoma = test system: SK-MEL-5 melanoma
DLD-1 colon = test system: DLD-1 colon
SF-268 CNS = test system: SF-268 CNS
UACC-62 melanoma = test system: UACC-62 melanoma
M14 melanoma = test system: M14 melanoma
NCI-H226 lung = test system: NCI-H226 lung
SK-OV-3 ovarian = test system: SK-OV-3 ovarian
HOP-92 NSCLC = test system: HOP-92 NSCLC
HCC-2998 colon = test system: HCC-2998 colon
SW-620 colon = test system: SW-620 colon
OVCAR-8 ovarian = test system: OVCAR-8 ovarian
U251 CNS = test system: U251 CNS
DMS 273 small cell lung = test system: DMS 273 small cell lung
HL-60(TB) leukemia = test system: HL-60(TB) leukemia
HCT-15 colon = test system: HCT-15 colon
IGROV1 ovarian = test system: IGROV1 ovarian
ACHN renal = test system: ACHN renal
M19-MEL melanoma = test system: M19-MEL melanoma
RPMI-8226 leukemia = test system: RPMI-8226 leukemia
SR leukemia = test system: SR leukemia
HOP-18 NSCLC = test system: HOP-18 NSCLC
UACC-257 melanoma = test system: UACC-257 melanoma
DMS 114 small cell lung = test system: DMS 114 small cell lung
MALME-3M melanoma = test system: MALME-3M melanoma
CAKI-1 renal = test system: CAKI-1 renal

In the case of C=C(COC(C)=O)CC(/C=C(\C)CC/C=C(\C)CO)OC(C)=O (stereo unspecified), the TGI (CCRF-CEM leukemia) is reported as over 100 µM, the TGI (TK-10 renal) is reported as over 100 µM and the TGI (NCI-H460 lung) is reported as over 100 µM. It also gave a TGI (EKVX NSCLC) of over 100 µM, a TGI (OVCAR-5 ovarian) of over 100 µM and a TGI (COLO 205 colon) of over 100 µM. For the same molecule, the TGI (HOP-62 NSCLC) was over 100 µM, the TGI (KM20L2 colon) was over 100 µM and the TGI (K-562 leukemia) was over 100 µM. The TGI (HT29 colon) was over 100 µM, the TGI (OVCAR-4 ovarian) was over 100 µM and the TGI (SNB-75 CNS) was over 100 µM. For the same molecule, the TGI (A549 NSCLC) was over 100 µM, the TGI (SNB-19 CNS) was over 100 µM and the TGI (SF-539 CNS) was over 100 µM. For the same molecule, the TGI (786-0 renal) was over 100 µM, the TGI (RXF 393 renal) was over 100 µM and the TGI (MOLT-4 leukemia) was over 100 µM. The TGI (UO-31 renal) was over 100 µM, the TGI (OVCAR-3 ovarian) was over 100 µM and the TGI (SN12C renal) was over 100 µM. The TGI (XF 498 CNS) was over 100 µM, the TGI (A498 renal) was over 100 µM and the TGI (LXFL 529 NSCLC) was over 100 µM. For the same molecule, the TGI (SK-MEL-28 melanoma) was over 100 µM, the TGI (LOX IMVI melanoma) was over 100 µM and the TGI (SK-MEL-2 melanoma) was over 100 µM. The TGI (RXF-631 renal) was over 100 µM, the TGI (HCT-116 colon) was over 100 µM and the TGI (SNB-78 CNS) was over 100 µM. For the same molecule, the TGI (KM12 colon) was over 100 µM, the TGI (SF-295 CNS) was over 100 µM and the TGI (NCI-H522 lung) was over 100 µM. The TGI (NCI-H23 lung) was over 100 µM, the TGI (SK-MEL-5 melanoma) was over 100 µM and the TGI (DLD-1 colon) was over 100 µM. It also gave a TGI (SF-268 CNS) of over 100 µM, a TGI (UACC-62 melanoma) of over 100 µM and a TGI (M14 melanoma) of over 100 µM. For the same molecule, the TGI (NCI-H226 lung) was over 100 µM, the TGI (SK-OV-3 ovarian) was over 100 µM and the TGI (HOP-92 NSCLC) was over 100 µM. For the same molecule, the TGI (HCC-2998 colon) was over 100 µM, the TGI (SW-620 colon) was over 100 µM and the TGI (OVCAR-8 ovarian) was over 100 µM. For the same molecule, the TGI (U251 CNS) was over 100 µM, the TGI (DMS 273 small cell lung) was over 100 µM and the TGI (HL-60(TB) leukemia) was over 100 µM. It also gave a TGI (HCT-15 colon) of over 100 µM, a TGI (IGROV1 ovarian) of over 100 µM and a TGI (ACHN renal) of over 100 µM. The TGI (M19-MEL melanoma) was over 100 µM.
For Cc1ccc(NC(=O)/C(=N\NC(N)=S)C(C#N)c2ccccc2C)cc1C (stereo unspecified), the TGI (CCRF-CEM leukemia) was over 100 µM, the TGI (TK-10 renal) was over 100 µM and the TGI (NCI-H460 lung) was over 100 µM. The TGI (EKVX NSCLC) was over 100 µM, the TGI (OVCAR-5 ovarian) was over 100 µM and the TGI (COLO 205 colon) was over 100 µM. It also gave a TGI (HOP-62 NSCLC) of over 100 µM, a TGI (KM20L2 colon) of over 100 µM and a TGI (K-562 leukemia) of over 100 µM. For the same molecule, the TGI (HT29 colon) was over 100 µM, the TGI (RPMI-8226 leukemia) was over 100 µM and the TGI (OVCAR-4 ovarian) was over 100 µM. The TGI (SNB-75 CNS) was over 100 µM, the TGI (A549 NSCLC) was over 100 µM and the TGI (SNB-19 CNS) was over 100 µM. It also gave a TGI (SF-539 CNS) of over 100 µM, a TGI (786-0 renal) of over 100 µM and a TGI (MOLT-4 leukemia) of over 100 µM. The TGI (UO-31 renal) was over 100 µM, the TGI (OVCAR-3 ovarian) was over 100 µM and the TGI (SN12C renal) was over 100 µM. The TGI (XF 498 CNS) was over 100 µM, the TGI (A498 renal) was over 100 µM and the TGI (LXFL 529 NSCLC) was over 100 µM. For the same molecule, the TGI (SK-MEL-28 melanoma) was over 100 µM, the TGI (SR leukemia) was over 100 µM and the TGI (HOP-18 NSCLC) was over 100 µM. It also gave a TGI (SK-MEL-2 melanoma) of over 100 µM, a TGI (RXF-631 renal) of over 100 µM and a TGI (HCT-116 colon) of over 100 µM. For the same molecule, the TGI (UACC-257 melanoma) was over 100 µM, the TGI (SNB-78 CNS) was over 100 µM and the TGI (DMS 114 small cell lung) was over 100 µM. It also gave a TGI (KM12 colon) of over 100 µM, a TGI (MALME-3M melanoma) of over 100 µM and a TGI (SF-295 CNS) of over 100 µM. For the same molecule, the TGI (NCI-H522 lung) was over 100 µM, the TGI (NCI-H23 lung) was over 100 µM and the TGI (SK-MEL-5 melanoma) was over 100 µM. The TGI (DLD-1 colon) was over 100 µM, the TGI (SF-268 CNS) was over 100 µM and the TGI (UACC-62 melanoma) was over 100 µM. For the same molecule, the TGI (M14 melanoma) was over 100 µM, the TGI (CAKI-1 renal) was over 100 µM and the TGI (NCI-H226 lung) was over 100 µM. For the same molecule, the TGI (SK-OV-3 ovarian) was over 100 µM, the TGI (HOP-92 NSCLC) was over 100 µM and the TGI (HCC-2998 colon) was over 100 µM. For the same molecule, the TGI (SW-620 colon) was over 100 µM, the TGI (OVCAR-8 ovarian) was over 100 µM and the TGI (U251 CNS) was over 100 µM. The TGI (DMS 273 small cell lung) was over 100 µM, the TGI (HL-60(TB) leukemia) was over 100 µM and the TGI (HCT-15 colon) was over 100 µM. It also gave a TGI (IGROV1 ovarian) of over 100 µM, a TGI (ACHN renal) of over 100 µM and a TGI (M19-MEL melanoma) of over 100 µM.
Molecule CCOC(=O)/C(=C/c1ccccc1Br)P(=O)(OCC)OCC has a TGI (CCRF-CEM leukemia) of 3.16 µM, a TGI (TK-10 renal) of 7.98 µM and a TGI (NCI-H460 lung) of 10.7 µM. The TGI (EKVX NSCLC) was 8.16 µM, the TGI (OVCAR-5 ovarian) was 5.92 µM and the TGI (HOP-62 NSCLC) was 12 µM. It also gave a TGI (KM20L2 colon) of 5.67 µM, a TGI (K-562 leukemia) of 2 µM and a TGI (HT29 colon) of 13.9 µM. The TGI (RPMI-8226 leukemia) was 3.36 µM, the TGI (OVCAR-4 ovarian) was 4.2 µM and the TGI (SNB-75 CNS) was 6.02 µM. It also gave a TGI (A549 NSCLC) of 10.7 µM, a TGI (SNB-19 CNS) of 6.21 µM and a TGI (SF-539 CNS) of 6.22 µM. For the same molecule, the TGI (786-0 renal) was 2.66 µM, the TGI (RXF 393 renal) was 2.44 µM and the TGI (MOLT-4 leukemia) was 5.35 µM. For the same molecule, the TGI (OVCAR-3 ovarian) was 5.46 µM, the TGI (SN12C renal) was 5.76 µM and the TGI (XF 498 CNS) was 3.56 µM. It also gave a TGI (A498 renal) of 8.61 µM, a TGI (LXFL 529 NSCLC) of 2.92 µM and a TGI (SK-MEL-28 melanoma) of 4.66 µM. It also gave a TGI (LOX IMVI melanoma) of 3.09 µM, a TGI (HOP-18 NSCLC) of 10.7 µM and a TGI (SK-MEL-2 melanoma) of 3.7 µM. For the same molecule, the TGI (RXF-631 renal) was 8.45 µM, the TGI (HCT-116 colon) was 10.1 µM and the TGI (KM12 colon) was 4.52 µM. It also gave a TGI (MALME-3M melanoma) of 3.47 µM, a TGI (SF-295 CNS) of 12.2 µM and a TGI (NCI-H522 lung) of 2.32 µM. For the same molecule, the TGI (NCI-H23 lung) was 4.09 µM, the TGI (SK-MEL-5 melanoma) was 3.51 µM and the TGI (DLD-1 colon) was 4.85 µM. It also gave a TGI (SF-268 CNS) of 10.5 µM, a TGI (UACC-62 melanoma) of 3.29 µM and a TGI (M14 melanoma) of 2.95 µM. The TGI (CAKI-1 renal) was 4.3 µM, the TGI (NCI-H226 lung) was 6.89 µM and the TGI (HOP-92 NSCLC) was 3.45 µM. For the same molecule, the TGI (HCC-2998 colon) was 3.24 µM, the TGI (SW-620 colon) was 4.45 µM and the TGI (OVCAR-8 ovarian) was 8.09 µM. The TGI (U251 CNS) was 3.18 µM, the TGI (DMS 273 small cell lung) was 3.04 µM and the TGI (HL-60(TB) leukemia) was 1.94 µM. It also gave a TGI (HCT-15 colon) of 5.87 µM, a TGI (IGROV1 ovarian) of 10.1 µM and a TGI (ACHN renal) of 6 µM. For the same molecule, the TGI (M19-MEL melanoma) was 3.68 µM.
